{
  "source": "patent US8785460B2",
  "about": "“Tricyclic compounds and use thereof” (Takeda Pharmaceutical Company Limited, priority 2008, dated 2014)",
  "data": [
    {"target": "T1, human CRF1 receptor (Homo sapiens, UniProt P34998)", "T1 construct": "expressed in transfected cells; host or cells: CHO cells (membrane fraction)", "T1 sequence (P34998 24-415)": "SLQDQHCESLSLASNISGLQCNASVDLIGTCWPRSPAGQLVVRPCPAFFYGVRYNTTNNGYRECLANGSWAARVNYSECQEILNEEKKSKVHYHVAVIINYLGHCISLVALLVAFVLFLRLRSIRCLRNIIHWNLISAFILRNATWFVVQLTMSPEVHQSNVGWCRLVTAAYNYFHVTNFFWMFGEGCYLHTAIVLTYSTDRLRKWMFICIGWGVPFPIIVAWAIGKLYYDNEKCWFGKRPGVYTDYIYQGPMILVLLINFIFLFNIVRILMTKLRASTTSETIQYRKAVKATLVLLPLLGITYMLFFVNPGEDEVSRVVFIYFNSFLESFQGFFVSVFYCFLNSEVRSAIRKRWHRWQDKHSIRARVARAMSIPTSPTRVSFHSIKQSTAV", "test": "Measurement of CRF Binding Inhibitory Rate (receptor binding experiment with 125I-CRF)", "conditions": "human CRF1 receptor expressing CHO cellular membrane fraction, 50 pM 125I-CRF, room temperature 1.5 hr, 0.05 nM to 10 μM of compound; read-out: IC50 values (CRF binding inhibition)", "units": {"IC50": "nM"}, "values": [
      {"smiles": "COc1ccc(N2CCCn3c2nc2c(Cl)ccc(C(OC)C(F)(F)F)c23)c(Cl)c1", "note": "(centres unmarked) [Example 471, 9-Chloro-1-(2-chloro-4-methoxyphenyl)-6-(2,2,2-trifluoro-1-methoxyethyl)-1,2,3,4-tetrahydropyrimido[1,2-a]benzimidazole]", "IC50": "< 1000"},
      {"smiles": "C=COC(CC)c1ccc(Cl)c2nc3n(c12)CCCN3c1ccc(Cl)cc1Cl", "note": "(centres unmarked) [Example 305, 9-Chloro-1-(2,4-dichlorophenyl)-6-[1-(ethenyloxy)propyl]-1,2,3,4-tetrahydropyrimido[1,2-a]benzimidazole]", "IC50": "< 1000"},
      {"smiles": "CCC(c1ccc(Cl)c2nc3n(c12)CCCN3c1ccc(Cl)cc1Cl)N(C)C(C)=O", "note": "(centres unmarked) [Example 388, N-{1-[9-Chloro-1-(2,4-dichlorophenyl)-1,2,3,4-tetrahydropyrimido[1,2-a]benzimidazol-6-yl]propyl}-N-methylacetamide]", "IC50": "< 1000"},
      {"smiles": "CCCC(O)c1ccc(Cl)c2nc3n(c12)CCCN3c1c(C)cc(Cl)cc1Cl", "note": "(centres unmarked) [Example 140, 1-[9-Chloro-1-(2,4-dichloro-6-methylphenyl)-1,2,3,4-tetrahydropyrimido[1,2-a]benzimidazol-6-yl]butan-1-ol]", "IC50": "< 1000"},
      {"smiles": "CCN(CC)c1cccc2nc3n(c12)CCC=C3c1ccc(Cl)cc1Cl", "note": "[Example 492, 4-(2,4-Dichlorophenyl)-N,N-diethyl-1,2-dihydropyrido[1,2-a]benzimidazol-9-amine]", "IC50": "< 1000"},
      {"smiles": "CCC(OC(=O)CC(C)(C)O)c1ccc(Cl)c2nc3n(c12)CCCN3c1ccc(Cl)cc1Cl", "note": "(centres unmarked) [Example 444, 1-[9-Chloro-1-(2,4-dichlorophenyl)-1,2,3,4-tetrahydropyrimido[1,2-a]benzimidazol-6-yl]propyl 3-hydroxy-3-methylbutanoate]", "IC50": "< 1000"},
      {"smiles": "OC(c1ccc(Br)c2nc3n(c12)CCCN3c1ccc(Cl)cc1Cl)(C1CC1)C1CC1", "note": "[Example 368, [9-Bromo-1-(2,4-dichlorophenyl)-1,2,3,4-tetrahydropyrimido[1,2-a]benzimidazol-6-yl](dicyclopropyl)methanol]", "IC50": "< 1000"},
      {"smiles": "CCC(OC(C)=O)c1ccc(Cl)c2nc3n(c12)CCCN3c1ccc(C(N)=O)cc1Cl", "note": "(centres unmarked) [Example 255, 1-[1-(4-Carbamoyl-2-chlorophenyl)-9-chloro-1,2,3,4-tetrahydropyrimido[1,2-a]benzimidazol-6-yl]propyl acetate]", "IC50": "< 1000"},
      {"smiles": "COc1ccc(N2CCCn3c2nc2c(Cl)ccc(C(O)(C4CC4)C4CC4)c23)c(Cl)c1", "note": "[Example 465, [9-Chloro-1-(2-chloro-4-methoxyphenyl)-1,2,3,4-tetrahydropyrimido[1,2-a]benzimidazol-6-yl](dicyclopropyl)methanol]", "IC50": "< 1000"},
      {"smiles": "CCC(CC#N)c1ccc(Cl)c2nc3n(c12)CCCN3c1ccc(Cl)cc1Cl", "note": "(centres unmarked) [Example 316, 3-[9-Chloro-1-(2,4-dichlorophenyl)-1,2,3,4-tetrahydropyrimido[1,2-a]benzimidazol-6-yl]pentanenitrile]", "IC50": "< 1000"},
      {"smiles": "COc1ccc(N2CCCn3c2nc2c(Cl)ccc(C(OCC(F)F)C4CC4)c23)c(Cl)c1", "note": "(centres unmarked) [Example 472, 9-Chloro-1-(2-chloro-4-methoxyphenyl)-6-[cyclopropyl(2,2-difluoroethoxy)methyl]-1,2,3,4-tetrahydropyrimido[1,2-a]benzimidazole]", "IC50": "< 1000"},
      {"smiles": "CCN(CC)c1cccc2nc3n(c12)CC(F)(F)CCN3c1ccc(Cl)cc1Cl", "note": "[Example 359, 1-(2,4-Dichlorophenyl)-N,N-diethyl-4,4-difluoro-2,3,4,5-tetrahydro-1H-[1,3]diazepino[1,2-a]benzimidazol-7-amine]", "IC50": "< 1000"},
      {"smiles": "CC(C)(C#N)c1ccc(Cl)c2nc3n(c12)CCCN3c1ccc(Cl)cc1Cl", "note": "[Example 144, 2-[9-Chloro-1-(2,4-dichlorophenyl)-1,2,3,4-tetrahydropyrimido[1,2-a]benzimidazol-6-yl]-2-methylpropanenitrile]", "IC50": "< 1000"},
      {"smiles": "CCC(CC)c1ccc(Cl)c2nc3n(c12)CCCCN3c1cccnc1OC", "note": "[Example 55, 10-Chloro-7-(1-ethylpropyl)-1-(2-methoxypyridin-3-yl)-2,3,4,5-tetrahydro-1H-[1,3]diazepino[1,2-a]benzimidazole]", "IC50": "< 1000"}
    ]}
  ]
}
